≈ marks a conversion by molar mass, not a printed value. Where “and” joins values, the source holds several entries; their conditions need not be identical. Equal entries are not always repeated. Blank lines part the entries; values can stand above or below the compound they belong to.
Experiments:
Assay in all cases: ≥ marks a high value that may be exact or a test limit, other limits are often not marked, values filed in µg/mL are converted to µM
Aureobasidium pullulans = test system: Aureobasidium pullulans
[1] = test system: Candida albicans ATCC 10231
[2] = test system: Corynebacterium glutamicum ATCC 13032
[3] = test system: Escherichia coli ATCC 25922
[4] = test system: Pseudomonas aeruginosa ATCC 27853
[5] = test system: Staphylococcus aureus ATCC 9144
[6] = test system: Bacillus subtilis KCTC 3068
[7] = test system: Enterococcus faecium ATCC 51559
[8] = test system: Escherichia coli KCTC 1682
[9] = test system: Pseudomonas aeruginosa CCARM 2095
[10] = test system: Pseudomonas aeruginosa CCARM 2109
[11] = test system: Pseudomonas aeruginosa KCTC 1637
[12] = test system: Salmonella typhimurium KCTC 1926
[13] = test system: Staphylococcus aureus CCARM 3089
[14] = test system: Staphylococcus aureus CCARM 3090
[15] = test system: Staphylococcus aureus CCARM 3095
[16] = test system: Staphylococcus aureus KCTC 1621
[17] = test system: Staphylococcus epidermidis KCTC 1917
[18] = test system: Escherichia coli CVCC 1515
Escherichia coli K88 = test system: Escherichia coli K88
Escherichia coli UB1005 = test system: Escherichia coli UB1005
[19] = test system: Salmonella enterica subsp. enterica serovar Typhimurium ATCC 14028
[20] = test system: Staphylococcus aureus ATCC 29213
[21] = test system: Staphylococcus epidermidis ATCC 12228
Acinetobacter baumannii = test system: Acinetobacter baumannii
[22] = test system: Bacillus cereus CGMCC 1.932
[23] = test system: Bacillus subtilis CMCC 63501
[24] = test system: Enterococcus faecalis ATCC 29212
Escherichia coli 078 = test system: Escherichia coli 078
Escherichia coli K99 = test system: Escherichia coli K99
[25] = test system: Listeria monocytogenes CGMCC 1.1075
[26] = test system: Pseudomonas aeruginosa PAO1
[27] = test system: Salmonella enterica subsp. enterica serovar Pullorum ATCC 7913
[28] = test system: Salmonella typhimurium ATCC 7731
[29] = test system: Staphylococcus aureus ATCC 25923
[30] = test system: Staphylococcus aureus ATCC 43300

SMILES: CC(C)[C@H](NC(=O)[C@H](CCCCN)NC(=O)[C@H](C)NC(=O)[C@@H](NC(=O)[C@@H](NC(=O)[C@H](CCCN=C(N)N)NC(=O)[C@H](CCCN=C(N)N)NC(=O)[C@H](Cc1c[nH]c2ccccc12)NC(=O)[C@H](C)NC(=O)CN)[C@@H](C)O)C(C)C)C(=O)N[C@@H](CCCN=C(N)N)C(=O)N[C@@H](CCCCN)C(N)=O [GAWRRTVAKVRK]
MIC (Aureobasidium pullulans): ≥ 50 µM
MIC [1]: 50 µM (≈ 71.3 µg/mL)
MIC [2]: 3.1 µM (≈ 4.42 µg/mL)
MIC [3]: 50 µM (≈ 71.3 µg/mL)
MIC [4]: 200 µM (≈ 285 µg/mL)
MIC [5]: ≥ 100 µM

SMILES: CC[C@H](C)[C@H](NC(=O)[C@H](C)NC(=O)[C@H](CCCN=C(N)N)NC(=O)[C@H](Cc1ccc(O)cc1)NC(=O)[C@H](CC(C)C)NC(=O)[C@H](CCCCN)NC(=O)[C@H](Cc1ccc(O)cc1)NC(=O)CNC(=O)[C@H](C)NC(=O)[C@H](CCCN=C(N)N)NC(=O)[C@@H](NC(=O)[C@H](Cc1c[nH]c2ccccc12)NC(=O)[C@H](CCCN=C(N)N)NC(=O)[C@@H](NC(=O)[C@@H](NC(=O)[C@@H](N)CC(C)C)C(C)C)[C@@H](C)CC)C(C)C)C(=O)N[C@@H](CCCCN)C(=O)N[C@@H](CCCCN)C(=O)N[C@@H](CCCCN)C(N)=O [LVIRWVRAGYKLYRAIKKK]
MIC [6]: 2 µM (≈ 4.72 µg/mL)
MIC [7]: 4 µM (≈ 9.44 µg/mL)
MIC [8]: 4 µM and 8 µM
MIC [9]: 2 µM (≈ 4.72 µg/mL)
MIC [10]: 4 µM (≈ 9.44 µg/mL)
MIC [11]: 8 µM (≈ 18.9 µg/mL)
MIC [12]: 2 µM (≈ 4.72 µg/mL)
MIC [13]: 4 µM (≈ 9.44 µg/mL)
MIC [14]: 2 µM (≈ 4.72 µg/mL)
MIC [15]: 2 µM (≈ 4.72 µg/mL)
MIC [16]: 2 µM and 4 µM
MIC [17]: 4 µM (≈ 9.44 µg/mL)

SMILES: CC(C)C[C@H](NC(=O)[C@H](CCCCN)NC(=O)[C@H](C)NC(=O)[C@H](C)NC(=O)[C@H](C)NC(=O)[C@H](CCCCN)NC(=O)[C@H](C)NC(=O)[C@H](C)NC(=O)[C@H](C)NC(=O)[C@H](CCCCN)NC(=O)[C@H](Cc1c[nH]c2ccccc12)NC(=O)[C@@H](N)CC(C)C)C(=O)N[C@@H](Cc1c[nH]c2ccccc12)C(N)=O [LWKAAAKAAAKLW]
MIC [3]: 4 µM (≈ 5.71 µg/mL)
MIC [18]: 8 µM (≈ 11.4 µg/mL)
MIC (Escherichia coli K88): 4 µM (≈ 5.71 µg/mL)
MIC (Escherichia coli UB1005): 8 µM (≈ 11.4 µg/mL)
MIC [4]: 8 µM (≈ 11.4 µg/mL)
MIC [19]: 32 µM (≈ 45.7 µg/mL)
MIC [20]: 8 µM (≈ 11.4 µg/mL)
MIC [21]: 8 µM (≈ 11.4 µg/mL)

SMILES: CC[C@H](C)[C@@H]1NC(=O)[C@H]([C@@H](C)O)NC(=O)[C@H](Cc2cnc[nH]2)NC(=O)[C@H](CCCN=C(N)N)NC(=O)[C@H](C)NC(=O)[C@H](CCCN=C(N)N)NC(=O)[C@H](CC(C)C)NC(=O)[C@H](CO)NC(=O)[C@H](C)NC(=O)[C@@H](NC(=O)[C@H](CC(C)C)NC(=O)[C@@H](N)CC(N)=O)CSSC[C@@H](C(=O)N[C@@H](CCCN=C(N)N)C(=O)N[C@@H](CCCCN)C(=O)N[C@@H](Cc2ccccc2)C(=O)NCC(=O)N[C@@H](CCCN=C(N)N)C(=O)N[C@@H](CCCN=C(N)N)C(=O)O)NC(=O)[C@H](CCC(N)=O)NC(=O)[C@@H]2CCCN2C1=O [NLCASLRARHTIPQCRKFGRR]
MIC [6]: 12.5 µM (≈ 31 µg/mL)
MIC [7]: 25 µM (≈ 62 µg/mL)
MIC [8]: 12.5 µM (≈ 31 µg/mL)
MIC [9]: ≥ 50 µM
MIC [11]: 12.5 µM (≈ 31 µg/mL)
MIC [12]: 12.5 µM (≈ 31 µg/mL)
MIC [13]: 12.5 µM (≈ 31 µg/mL)
MIC [14]: 25 µM (≈ 62 µg/mL)
MIC [15]: 12.5 µM (≈ 31 µg/mL)
MIC [16]: 12.5 µM (≈ 31 µg/mL)
MIC [17]: 12.5 µM (≈ 31 µg/mL)

The next lines start with the values.

MIC (Aureobasidium pullulans): ≥ 50 µM
MIC [1]: 25 µM (≈ 37.8 µg/mL)
MIC [2]: 1.6 µM (≈ 2.42 µg/mL)
MIC [3]: 12.5 µM (≈ 18.9 µg/mL)
MIC [4]: 6.3 µM (≈ 9.54 µg/mL)
MIC [5]: ≥ 100 µM
SMILES: CC(C)[C@H](NC(=O)[C@@H](NC(=O)[C@H](CCCN=C(N)N)NC(=O)[C@H](CCCN=C(N)N)NC(=O)[C@H](Cc1c[nH]c2ccccc12)NC(=O)[C@H](Cc1c[nH]c2ccccc12)NC(=O)CN)[C@@H](C)O)C(=O)N[C@@H](C)C(=O)N[C@@H](CCCCN)C(=O)N[C@@H](C)C(=O)N[C@@H](CCCN=C(N)N)C(=O)N[C@@H](CCCCN)C(N)=O [GWWRRTVAKARK]

MIC (Acinetobacter baumannii): 2 µM (≈ 3.46 µg/mL)
MIC [22]: 4 µM (≈ 6.92 µg/mL)
MIC [23]: 8 µM (≈ 13.8 µg/mL)
MIC [24]: 4 µM (≈ 6.92 µg/mL)
MIC (Escherichia coli 078): 2 µM (≈ 3.46 µg/mL)
MIC (Escherichia coli K88): 4 µM (≈ 6.92 µg/mL)
MIC (Escherichia coli K99): 1 µM (≈ 1.73 µg/mL)
MIC (Escherichia coli UB1005): 1 µM (≈ 1.73 µg/mL)
MIC [25]: 2 µM (≈ 3.46 µg/mL)
MIC [4]: 2 µM (≈ 3.46 µg/mL)
MIC [26]: 4 µM (≈ 6.92 µg/mL)
MIC [27]: 0.5 µM (≈ 0.866 µg/mL)
MIC [19]: 2 µM (≈ 3.46 µg/mL)
MIC [28]: 4 µM (≈ 6.92 µg/mL)
MIC [29]: 1 µM (≈ 1.73 µg/mL)
MIC [30]: 2 µM (≈ 3.46 µg/mL)
MIC [21]: 0.5 µM (≈ 0.866 µg/mL)
SMILES: C[C@H](NC(=O)[C@H](CCCN=C(N)N)NC(=O)[C@H](Cc1c[nH]c2ccccc12)NC(=O)[C@H](CCCN=C(N)N)NC(=O)[C@H](Cc1c[nH]c2ccccc12)NC(=O)[C@H](Cc1c[nH]c2ccccc12)NC(=O)[C@H](Cc1c[nH]c2ccccc12)NC(=O)[C@H](CCCN=C(N)N)NC(=O)[C@H](Cc1c[nH]c2ccccc12)NC(=O)[C@H](CCCN=C(N)N)NC(=O)[C@@H](N)CO)C(N)=O [SRWRWWWRWRA]

MIC (Acinetobacter baumannii): 2 µM (≈ 3.49 µg/mL)
MIC [22]: 8 µM (≈ 14 µg/mL)
MIC [23]: 16 µM (≈ 27.9 µg/mL)
MIC [24]: 4 µM (≈ 6.98 µg/mL)
MIC (Escherichia coli 078): 2 µM (≈ 3.49 µg/mL)
MIC (Escherichia coli K88): 2 µM (≈ 3.49 µg/mL)
MIC (Escherichia coli K99): 2 µM (≈ 3.49 µg/mL)
MIC (Escherichia coli UB1005): 1 µM (≈ 1.75 µg/mL)
MIC [25]: 1 µM (≈ 1.75 µg/mL)
MIC [4]: 2 µM (≈ 3.49 µg/mL)
MIC [26]: 16 µM (≈ 27.9 µg/mL)
MIC [27]: 1 µM (≈ 1.75 µg/mL)
MIC [19]: 1 µM (≈ 1.75 µg/mL)
MIC [28]: 2 µM (≈ 3.49 µg/mL)
MIC [29]: 1 µM (≈ 1.75 µg/mL)
MIC [30]: 2 µM (≈ 3.49 µg/mL)
MIC [21]: 1 µM (≈ 1.75 µg/mL)
SMILES: C[C@H](NC(=O)[C@H](CCCN=C(N)N)NC(=O)[C@H](Cc1c[nH]c2ccccc12)NC(=O)[C@H](CCCN=C(N)N)NC(=O)[C@H](Cc1c[nH]c2ccccc12)NC(=O)[C@H](Cc1c[nH]c2ccccc12)NC(=O)[C@H](Cc1c[nH]c2ccccc12)NC(=O)[C@H](CCCN=C(N)N)NC(=O)[C@H](Cc1c[nH]c2ccccc12)NC(=O)[C@H](CCCN=C(N)N)NC(=O)[C@@H](N)[C@@H](C)O)C(N)=O [TRWRWWWRWRA]

— DBAASP
